Assay results taken from patent publication US7138361B2, “Herbicidal heterocycles” (E. I. du Pont de Nemours and Company, priority 2000, dated 2006).

Columns and labels:
Type in all cases: in vivo
[1] = tested on: crabgrass (Digitaria sanguinalis); experiment: Test B postemergence; settings: 13 to 15 days
In short: (§1)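 Post-treatment, species sat 13–15 days under greenhouse conditions before visual scoring against controls, 0 (no effect) through 100 (complete control). Application preemergence to sown seeds or postemergence at 1- to 4-leaf stage, using a non-phytotoxic solvent/surfactant formulation.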

[2] = tested on: morning glory (Ipomoea hederacea); experiment: Test B postemergence; settings: 13 to 15 days
In short: as §1

[3] = tested on: giant foxtail (Setaria faberii); experiment: Test B postemergence; settings: 13 to 15 days
In short: as §1

[4] = tested on: barnyardgrass (Echinochloa crus-galli); experiment: Test B postemergence; settings: 13 to 15 days
In short: as §1

[5] = tested on: wheat (Triticum aestivum); experiment: Test B postemergence; settings: 13 to 15 days
In short: as §1

[6] = tested on: blackgrass (Alopecurus myosuroides); experiment: Test B postemergence; settings: 13 to 15 days
In short: as §1

[7] = tested on: cocklebur (Xanthium strumarium); experiment: Test B postemergence; settings: 13 to 15 days
In short: as §1

wild oat (Avena fatua) = experiment: Test B postemergence; settings: 13 to 15 days
In short: as §1

[8] = tested on: velvetleaf (Abutilon theophrasti); experiment: Test B postemergence; settings: 13 to 15 days
In short: as §1

[9] = tested on: lambsquarters (Chenopodium album); experiment: Test B postemergence; settings: 13 to 15 days
In short: as §1

[10] = tested on: Surinam grass (Brachiaria decumbens); experiment: Test B postemergence; settings: 13 to 15 days
In short: as §1

[11] = tested on: pigweed (Amaranthus retroflexus); experiment: Test B postemergence; settings: 13 to 15 days
In short: as §1

corn (Zea mays) [12] = experiment: Test B postemergence; settings: 13 to 15 days
In short: as §1

[13] = tested on: bermudagrass (Cynodon dactylon); experiment: Test C preemergence
Description: (§2) Seeds of plant species selected from bermudagrass (Cynodon dactylon), Surinam grass (Brachiaria decumbens), cocklebur (Xanthium strumarium), corn (Zea mays), crabgrass (Digitaria sanguinalis), woolly cupgrass (Eriochloa villosa), giant foxtail (Setaria faberii), goosegrass (Eleusine indica), johnsongrass (Sorghum halepense), kochia (Kochia scoparia), lambsquarters (Chenopodium album), morningglory (Ipomoea hederacea), yellow nutsedge (Cyperus esculentus), pigweed (Amaranthus retroflexus), common ragweed (Ambrosia elatior), soybean (Glycine max) and velvetleaf (Abutilon theophrasti) were planted and treated preemergence with test chemicals formulated in a non-phytotoxic solvent mixture which included a surfactant.
(§3) At the same time, plants selected from these crop and weed species and also winter barley (Hordeum vulgare), blackgrass (Alopecurus myosuroides), canary grass (Phalaris minor), chickweed (Stellaria media), downy brome (Bromus tectorum), green foxtail (Setaria viridis), Italian ryegrass (Lolium multiflorum), wheat (Triticum aestivum), wild oat (Avena fatua) and windgrass (Apera spica-venti) were treated with postemergence applications of some of the test chemicals formulated in the same manner. Plants ranged in height from 2 to 18 cm (1- to 4-leaf stage) for postemergence treatments. Plant species in the flooded paddy test consisted of rice (Oryza saliva), smallflower flatsedge (Cyperus difformis), duck salad (Heteranthera limosa) and barnyardgrass (Echinochloa crus-galli) grown to the 2-leaf stage for testing. Treated plants and controls were maintained in a greenhouse for 12 to 14 days, after which time all species were compared to controls and visually evaluated. Plant response ratings, summarized in Table C, are based on a scale of 0 to 100 where 0 is no effect and 100 is complete control. A dash (-) response means no test result.

[14] = tested on: giant foxtail (Setaria faberii); experiment: Test C preemergence
Description: as §2, §3

kochia (Kochia scoparia) = experiment: Test C preemergence
Description: as §2, §3

Sunflower = experiment: Test C preemergence; settings: scale 0 to 100, 0 no effect, 100 complete control
Description: as §2, §3

[15] = tested on: morningglory (Ipomoea hederacea); experiment: Test C preemergence
Description: as §2, §3

[16] = tested on: johnsongrass (Sorghum halepense); experiment: Test C preemergence
Description: as §2, §3

[17] = tested on: velvetleaf (Abutilon theophrasti); experiment: Test C preemergence
Description: as §2, §3

[18] = tested on: yellow nutsedge (Cyperus esculentus); experiment: Test C preemergence
Description: as §2, §3

corn (Zea mays) [19] = experiment: Test C preemergence
Description: as §2, §3

[20] = Rate 125 g/ha, scale 0 (no effect) to 100 (complete control)
[21] = Rate 500 g/ha, scale 0 to 100, 0 is no effect, 100 is complete control
[22] = Rate 62 g/ha, scale 0 to 100, 0 no effect, 100 complete control
[23] = Rate 125 g/ha, scale 0 to 100, 0 no effect, 100 complete control
[24] = preemergence, Rate 31 g/ha, scale 0 to 100
[25] = preemergence, Rate 250 g/ha, visual evaluation after 12 to 14 days
[26] = preemergence, Rate 250 g/ha, scale 0 to 100, 0 no effect, 100 complete control
[27] = preemergence, Rate 16 g/ha, scale 0 to 100
[28] = preemergence, Rate 125 g/ha, scale 0 to 100, 0 no effect, 100 complete control

Compound: CCC(CC)c1ccn(C2CCN(c3ccc(C)c(OC)c3)C2=O)n1 (stereo not drawn) [Compound 81]
- Plant response rating, Crabgrass [1, 20]: 0
- Plant response rating, Crabgrass [1, 21]: 30
- Plant response rating, Morningglory [2, 20]: 80
- Plant response rating, Morningglory [2, 21]: 100
- Plant response rating, Foxtail, Giant [3, 20]: 0
- Plant response rating, Foxtail, Giant [3, 21]: 0
- Plant response rating, Barnyardgrass [4, 20]: 0
- Plant response rating, Barnyardgrass [4, 21]: 0
- Plant response rating, Wheat [5, 20]: 0
- Plant response rating, Wheat [5, 21]: 0
- Plant response rating, Blackgrass [6, 20]: 0
- Plant response rating, Blackgrass [6, 21]: 0
- Plant response rating, Cocklebur [7, 20]: 90
- Plant response rating, Cocklebur [7, 21]: 100
- Plant response rating, Wild Oat (wild oat (Avena fatua); [20]): 0
- Plant response rating, Wild Oat (wild oat (Avena fatua); [21]): 0
- Plant response rating, Velvetleaf [8, 20]: 80
- Plant response rating, Velvetleaf [8, 21]: 90
- Plant response rating, Lambsquarters [9, 20]: 20
- Plant response rating, Lambsquarters [9, 21]: 90
- Plant response rating, Surinam grass [10, 20]: 0
- Plant response rating, Surinam grass [10, 21]: 10
- Plant response rating, Pigweed [11, 20]: 70
- Plant response rating, Pigweed [11, 21]: 90
- Plant response rating, Corn (corn (Zea mays) [12]; [20]): 10
- Plant response rating, Corn (corn (Zea mays) [12]; [21]): 10
- Plant response rating, Bermudagrass [13, 22]: 100
- Plant response rating, Bermudagrass [13, 23]: 100
- Plant response rating, Bermudagrass [13, 24]: 100
- Plant response rating (0 to 100 where 0 is no effect and 100 is complete control), Bermudagrass [13, 25]: 100
- Plant response rating, Foxtail, Giant [14, 22]: 90
- Plant response rating, Foxtail, Giant [14, 23]: 100
- Plant response rating, Foxtail, Giant [14, 24]: 30
- Plant response rating (0 to 100), Foxtail, Giant [14, 25]: 100
- Plant response rating, Kochia (kochia (Kochia scoparia); [22]): 100
- Plant response rating, Kochia (kochia (Kochia scoparia); [23]): 100
- Plant response rating, Kochia (kochia (Kochia scoparia); [24]): 100
- Plant response rating (0 to 100), Kochia (kochia (Kochia scoparia); [25]): 100
- Plant response rating, Sunflower (Sunflower; Rate 125 g/ha): 0
- Plant response rating, Morningglory [15, 22]: 0
- Plant response rating, Morningglory [15, 23]: 20
- Plant response rating, Morningglory [15, 24]: 0
- Plant response rating, Morningglory [15, 26]: 20
- Plant response rating, Johnsongrass [16, 22]: 0
- Plant response rating, Johnsongrass [16, 23]: 20
- Plant response rating, Johnsongrass [16, 24]: 0
- Plant response rating (0 to 100), Johnsongrass [16, 25]: 20
- Plant response rating, Velvetleaf [17, 23]: 30
- Plant response rating, Velvetleaf [17, 24]: 0
- Plant response rating, Velvetleaf [17, 26]: 80
- Plant response rating, Nutsedge [18, 22]: 0
- Plant response rating, Nutsedge [18, 23]: 0
- Plant response rating, Nutsedge [18, 24]: 0
- Plant response rating, Nutsedge [18, 26]: 0
- Plant response rating, Corn (corn (Zea mays) [19]; [22]): 0
- Plant response rating, Corn (corn (Zea mays) [19]; [23]): 0
- Plant response rating, Corn (corn (Zea mays) [19]; [24]): 0
- Plant response rating (0 to 100), Corn (corn (Zea mays) [19]; [25]): 0

Compound: CC(C)(C)c1ccn(C2CCN(c3cccc(Cl)c3)C2=O)n1 (stereo not drawn) [Compound 43]
- Plant response rating, Crabgrass [1, 20]: 0
- Plant response rating, Crabgrass [1, 21]: 50
- Plant response rating, Morningglory [2, 20]: 0
- Plant response rating, Morningglory [2, 21]: 0
- Plant response rating, Foxtail, Giant [3, 20]: 0
- Plant response rating, Foxtail, Giant [3, 21]: 0
- Plant response rating, Barnyardgrass [4, 20]: 0
- Plant response rating, Barnyardgrass [4, 21]: 70
- Plant response rating, Wheat [5, 20]: 0
- Plant response rating, Wheat [5, 21]: 0
- Plant response rating, Blackgrass [6, 20]: 0
- Plant response rating, Blackgrass [6, 21]: 0
- Plant response rating, Cocklebur [7, 20]: 0
- Plant response rating, Cocklebur [7, 21]: 0
- Plant response rating, Wild Oat (wild oat (Avena fatua); [20]): 0
- Plant response rating, Wild Oat (wild oat (Avena fatua); [21]): 0
- Plant response rating, Velvetleaf [8, 20]: 0
- Plant response rating, Velvetleaf [8, 21]: 0
- Plant response rating, Lambsquarters [9, 20]: 50
- Plant response rating, Lambsquarters [9, 21]: 80
- Plant response rating, Surinam grass [10, 20]: 0
- Plant response rating, Surinam grass [10, 21]: 0
- Plant response rating, Pigweed [11, 20]: 50
- Plant response rating, Pigweed [11, 21]: 80
- Plant response rating, Corn (corn (Zea mays) [12]; [20]): 0
- Plant response rating, Corn (corn (Zea mays) [12]; [21]): 0
- Plant response rating, Bermudagrass [13, 22]: 50
- Plant response rating, Bermudagrass [13, 27]: 20
- Plant response rating, Bermudagrass [13, 24]: 40
- Plant response rating, Bermudagrass [13, 28]: 60
- Plant response rating, Foxtail, Giant [14, 22]: 0
- Plant response rating, Foxtail, Giant [14, 27]: 0
- Plant response rating, Foxtail, Giant [14, 24]: 0
- Plant response rating, Foxtail, Giant [14, 28]: 0
- Plant response rating, Kochia (kochia (Kochia scoparia); [22]): 90
- Plant response rating, Kochia (kochia (Kochia scoparia); [27]): 20
- Plant response rating, Kochia (kochia (Kochia scoparia); [24]): 70
- Plant response rating, Kochia (kochia (Kochia scoparia); [28]): 100
- Plant response rating, Sunflower (Sunflower; Rate 62 g/ha): 0
- Plant response rating, Morningglory [15, 22]: 0
- Plant response rating, Morningglory [15, 27]: 0
- Plant response rating, Morningglory [15, 24]: 0
- Plant response rating, Morningglory [15, 28]: 0
- Plant response rating, Johnsongrass [16, 22]: 0
- Plant response rating, Johnsongrass [16, 27]: 0
- Plant response rating, Johnsongrass [16, 24]: 0
- Plant response rating, Johnsongrass [16, 28]: 50
- Plant response rating, Velvetleaf [17, 22]: 0
- Plant response rating, Velvetleaf [17, 27]: 0
- Plant response rating, Velvetleaf [17, 24]: 0
- Plant response rating, Velvetleaf [17, 28]: 0
- Plant response rating, Nutsedge [18, 22]: 0
- Plant response rating, Nutsedge [18, 27]: 0
- Plant response rating, Nutsedge [18, 24]: 0
- Plant response rating, Nutsedge [18, 28]: 30
- Plant response rating, Corn (corn (Zea mays) [19]; [22]): 0
- Plant response rating, Corn (corn (Zea mays) [19]; [27]): 0
- Plant response rating, Corn (corn (Zea mays) [19]; [24]): 0
- Plant response rating, Corn (corn (Zea mays) [19]; [28]): 0
